{
  "source": "patent US20110182943A1",
  "about": "“METHODS OF IMMUNE OR HEMATOLOGICAL ENHANCEMENT, INHIBITING TUMOUR FORMATION OR GROWTH, AND TREATING OR PREVENTING CANCER, CANCER SYMPTOMS, OR THE SYMPTOMS OF CANCER TREATMENTS” (FONTERRA CO-OPERATIVE GROUP LIMITED, priority 2007, published 2011)",
  "key": {"[1]": {"conditions": "day 4; 300 mg/Kg i.p.; irrespective of the diet fed", "experimental": "Cyclophosphamide, diluted in PBS, was administered i.p. at 300 mg/Kg.\n(§1) Groups of six C57BL/6 mice were fed an AIN93G diet or the same diet substituted with either 5%, 25% or 70% milk fat, and after 4 weeks of feeding were injected intraperitoneally with cyclophosphamide (300 mg/Kg of body weight) at day 0. The mice were killed 4, 8, and 12 days later, and tissues analyzed for the side-effects of drug treatment, as described below."}, "[2]": {"conditions": "single injection 300 mg/Kg i.p.; control diet", "experimental": "as §1"}, "4T1 tumour cells": {"tested_on": "4T1 tumour cells", "test": "4T1 breast cancer primary tumour growth", "format": "in vivo, Balb/c mice", "method": "Tumours were established by s.c. injection of 2×10^5 EL-4 or 2×10^4 4T1 cells into the left flank of mice, and tumour growth determined by measuring two perpendicular diameters. Animals were euthanased when tumours reached more than 1.0 cm in diameter, in accord with Animal Ethics Approval (University of Auckland). All experiments included 5 or 6 mice per treatment group, unless otherwise indicated. Paclitaxel (30 mg dissolved in 5 ml of Cremophor® EL and dehydrated alcohol) was diluted in 0.9% NaCl and administered i.p. at 30 mg/Kg.\nGroups of 6 Balb/c mice were fed the base AIN-93 diet, or the same diet substituted with 5% milk fat, representing ˜71% of the fat component of the diet. Mice were challenged subcutaneously with 2×10^4 4T1 tumour cells two weeks after being placed on the diets. The mice were monitored for tumour growth, and tumour size was measured every three days."}, "EL-4 tumour cells": {"tested_on": "EL-4 tumour cells", "test": "EL-4 lymphoma tumour growth in mice fed experimental diets", "format": "in vivo, C57BL/6 mice", "excerpt": "Mice were challenged subcutaneously with 2×10^5 EL-4 tumour cells two weeks after being placed on the diets. Tumour size as measured by two perpendicular diameters (in centimetres) was monitored until day 91, or until tumours reached 1 cm in diameter. Each point represents the mean tumour size with 95% confidence intervals for either 6 mice, or the number of mice indicated.\nGroups of six mice were fed a control AIN-93G diet, diets containing either 28 g Lf+ or 120 g of milk fat (AMF) per 2.4 Kg of diet, or a diet containing a combination of both Lf and milk fat. Day 0 refers to the day the mice were placed on their diets. After 2 weeks on the diets, 2×10^5 EL-4 cells were injected into the flanks of mice. Tumour size as measured by two perpendicular diameters (in centimetres) was monitored until day 56. Each point represents the mean tumour size with 95% confidence intervals for either 6 mice, or the number of mice indicated.\nMice were challenged subcutaneously with EL-4 tumour cells two weeks after being placed on the diets. Tumour size was again measured by two perpendicular diameters (in centimetres)."}, "[3]": {"test": "Body, tumour, organ and tissue weights (cachexia) in 4T1 tumour-bearing mice", "method": "Tumours were established by s.c. injection of 2×10^5 EL-4 or 2×10^4 4T1 cells into the left flank of mice, and tumour growth determined by measuring two perpendicular diameters. […] All experiments included 5 or 6 mice per treatment group, unless otherwise indicated. Paclitaxel (30 mg dissolved in 5 ml of Cremophor® EL and dehydrated alcohol) was diluted in 0.9% NaCl and administered i.p. at 30 mg/Kg. In the case of the 4T1 metastatic model of breast cancer, after the mice were euthanased at the end of experiments, the organs including lung, liver and spleen were removed and weighed.\nThe mice were weighed at the start and end of the experiment. After the mice were euthanased, the tumours were excised and weighed. To determine the extent of adipose tissue and muscle wasting, epididymal adipose tissue and the left gastrocnemius muscle were dissected and weighed. The carcass weight was calculated as the difference in weight between the whole body and the tumour."}, "[4]": {"conditions": "paclitaxel 30 mg/kg i.p.", "method": "The jejuni from mice were fixed in 4% paraformaldehyde, embedded in paraffin, sectioned at 4 μm, and sections stained with hematoxylin-eosin. In each specimen, 20 well preserved villi were randomly selected and their lengths were measured by microscopy using an objective micrometer.\nTo determine whether milk fat protected the gut against paclitaxel-induced damage, groups of 6 Balb/c mice were fed the base AIN-93 diet, or the same diet substituted with 5% milk fat, representing ˜71% of the fat component of the diet. Two weeks later each mouse received an intraperitoneal injection of paclitaxel (30 mg/kg body weight). One week later they were killed and the jejunum was removed. Paraffin-embedded sections of the jejunum of mice treated with control diet, milk fat diet, control diet plus paclitaxel, and milk fat diet plus paclitaxel were stained with hematoxylin and eosin."}, "[5]": {"tested_on": "4T1 breast cancer tumours", "test": "4T1 lung surface metastases", "format": "in vivo, Balb/c mice", "conditions": "day 35", "excerpt": "Suppression of lung metastases: The 4T1 breast cancer cell line is highly metastatic and disseminates to the lung and liver. The lungs of the mice in Example 8 (day 35) were inspected for tumours and micrometastases. The mean numbers of tumours on the lung surface of untreated mice fed the control diet, paclitaxel-treated mice fed the control diet, untreated mice fed milk fat, and paclitaxel-treated mice fed milk fat were 32, 18, 22, and 10, respectively (FIG. 6)."}, "[6]": {"tested_on": "4T1 breast cancer tumours", "test": "4T1 liver metastases", "format": "in vivo, Balb/c mice", "conditions": "day 35", "excerpt": "Suppression of liver metastases: Similarly, the livers of the above mice were inspected for tumours and micrometastases. The livers were removed, section, and stained with hematoxylin/eosin, and the numbers of metastatic nodules inside the livers were counted."}, "4T1 primary tumours": {"tested_on": "4T1 primary tumours", "test": "4T1 tumour angiogenesis (anti-CD31 staining)", "format": "in vivo, Balb/c mice", "conditions": "day 35", "experimental": "To determine tumour vascularity, 10-μm frozen tumour sections were fixed with acetone, rinsed with PBS, blocked with 2% BSA for 2 hr, and incubated overnight with the anti-CD31 antibody MEC13.3, or an anti-CD105 mAb. They were subsequently incubated for 30 min with secondary antibodies using the VECTASTAIN Universal Quick kit (Vector Laboratories, Burlingame, Calif., USA); and developed with Sigma FAST DAB (3,3′-diaminobenzidine tetrahydrochloride) and CoCl2 enhancer tablets (Sigma), and counterstained with hematoxylin. Stained blood vessels were counted in five or six blindly chosen random fields (0.155 mm^2) at ×40 magnification, and the mean of the highest three counts was calculated. […]\nThe above 4T1 primary tumours (Example 8; day 35) of untreated mice fed the control diet, paclitaxel-treated mice fed the control diet, untreated mice fed milk fat, and paclitaxel-treated mice fed milk fat were excised, sectioned, and stained with an anti-CD31 antibody to identify vascular endothelial cells so as to measure tumour angiogenesis. Blood vessels stained with the anti-CD31 mAb were counted in blindly chosen random fields to record mean vessel density (8A), or the median distance to the nearest CD31 mAb-labeled blood vessel from an array point (8B)."}, "[7]": {"test": "Blood cell counts in 4T1 tumour-bearing mice", "format": "in vivo, Balb/c mice"}, "[8]": {"test": "Paclitaxel-induced apoptosis in jejunal crypts (TUNEL)", "format": "in vivo, Balb/c mice", "conditions": "paclitaxel 30 mg/kg i.p.", "experimental": "Tumours were excised and immediately frozen in dry ice, and stored at −70° C. for later in situ detection of apoptotic cells in tumours. Frozen serial sections of 6-μm thickness were fixed with paraformaldehyde solution (4% in PBS, pH 7.4), and permeabilized with a solution containing 0.1% Triton X-100 and 0.1% sodium citrate. They were incubated with 20 μl TUNEL reagent (In Situ apoptosis detection kit from Boehringer Mannheim, Germany) for 60 min at 37° C., and examined by fluorescence microscopy. Adjacent sections were counter-stained with haematoxylin to count the total number of cells, or the number of apoptotic cells in ten randomly selected fields (magnification of ×40). The apototic index (AI) was calculated as the number of apoptotic cells×100/total number of nucleated cells. For detection of apoptotic cells in vitro, the numbers of apoptotic and necrotic tumour cells were measured by staining with annexin-V-fluos, TUNEL, and trypan blue. For measurement of gut apoptosis, jejunal sections were stained by the TUNEL method using a DeadEnd™ Fluorometric TUNEL System (Promega, Madison, Wis., USA). Apoptotic cells in 10 randomly selected cypts were counted, and the data expressed as apoptotic bodies per crypt."}, "[9]": {"tested_on": "jejunal γ-glutamyl transpeptidase (γ-GGT)", "conditions": "paclitaxel 30 mg/kg i.p.", "method": "The activity of jejunal γ-glutamyl transpeptidase (γ-GGT) was recorded as a separate measure of gut damage, as described previously Ziotnik et al., 2005). A segment of the jejunum (approximately 5 cm) was excised and flushed with 10 ml of PBS, and cut into two 2 cm^2 segments which were placed into 1.0 ml of 1.0% Triton X-100, 0.15 M NaCl, 100 mM Tris, pH 8.0 (Tris buffer). Twenty microlitres of a solution containing 0.3 ml of 100 mM glycyl-glycine, pH 8.0, 0.08 ml Tris buffer, 0.5 ml of 5 mM γ-glutamyl-p-nitroanilide was added to final volume of 0.9 ml. The gut slices were incubated for 10 min in a shaking water bath at 37° C., and γ-GGT activity read at 405 nm. Results were expressed as units of γ-GGT activity per cm of jejunum, where one unit is defined as the γ-GGT activity that releases 1.0 mol of p-nitroaniline in 1 h.\nTo determine whether milk fat protected the gut against paclitaxel-induced damage, groups of 6 Balb/c mice were fed the base AIN-93 diet, or the same diet substituted with 5% milk fat, representing ˜71% of the fat component of the diet. Two weeks later each mouse received an intraperitoneal injection of paclitaxel (30 mg/kg body weight). One week later they were killed and the jejunum was removed."}, "[10]": {"conditions": "paclitaxel chemotherapy, control diet"}, "[11]": {"conditions": "tumour-bearing mice, mean ± SEM, n = 6"}},
  "data": [
    {"compound": "O=P1(N(CCCl)CCCl)NCCCO1", "note": "(centres unmarked) [cyclophosphamide]", "values": [
      {"measurement": "reduction of peripheral WBC count", "setting": "[1]", "result": "more than 90%"},
      {"measurement": "reduction in average length of the villi compared with healthy control mice", "setting": "[2]", "result": 65, "unit": "%"}
    ]},
    {"compound": "CCCCCC/C=C/C=C\\CCCCCCCC(=O)O", "note": "(single isomer, unassigned) [c-9, t-11 CLA isomer]", "values": [
      {"measurement": "synergy with Lf+", "setting": "4T1 tumour cells; 5 g per 2.4 Kg of diet", "result": "no synergy"},
      {"measurement": "effect on growth of 4T1 tumours", "setting": "4T1 tumour cells; 5 g per 2.4 Kg of diet, 3% of the fat component", "result": "only wealdy inhibited"}
    ]},
    {"compound": "sphingomyelin", "values": [
      {"measurement": "delay of tumour growth in two mice", "setting": "EL-4 tumour cells; 1.2 g per 2.4 Kg of diet", "result": "~1", "unit": "week"},
      {"measurement": "delay of tumour growth in two other mice", "setting": "EL-4 tumour cells; 1.2 g per 2.4 Kg of diet", "result": "~2", "unit": "weeks"},
      {"measurement": "effect on tumour growth / tumorigenesis in individual mice", "setting": "EL-4 tumour cells; groups of five mice, per 2.4 Kg of diet: 28 g Lf+, 120 g Phospholac 600, 1.2 g sphingomyelin", "result": "no appreciable affect on tumour growth of the remaining mouse"}
    ]},
    {"compound": "CC(=O)O[C@H]1C(=O)[C@@]2(C)[C@H]([C@H](OC(=O)c3ccccc3)[C@]3(O)C[C@H](OC(=O)[C@H](O)[C@@H](NC(=O)c4ccccc4)c4ccccc4)C(C)=C1C3(C)C)[C@]1(OC(C)=O)CO[C@@H]1C[C@@H]2O", "note": "[paclitaxel]", "values": [
      {"measurement": "reduction in lung weight compared to untreated mice fed the control diet", "setting": "[3]; day 35, tumour-bearing mice", "result": 30, "unit": "%"},
      {"measurement": "reduction in spleen weights compared to tumour-bearing mice fed the control diet", "setting": "[3]; [10]", "result": 8.5, "unit": "%"},
      {"measurement": "Body weight", "setting": "[3]; [11]", "result": "17.7 ± 1.5", "unit": "g"},
      {"measurement": "Carcass body weight", "setting": "[3]; [11]", "result": "17.6 ± 1.4", "unit": "g"},
      {"measurement": "Epididymal adipose tissue", "setting": "[3]; [11]", "result": "24.3 ± 6.7", "unit": "mg"},
      {"measurement": "Gastrocnemius muscle", "setting": "[3]; [11]", "result": "101.2 ± 9.3", "unit": "mg"},
      {"measurement": "Liver", "setting": "[3]; [11]", "result": "1210.1 ± 72.4", "unit": "mg"},
      {"measurement": "Lung", "setting": "[3]; [11]", "result": "274.5 ± 30.6^3 mg"},
      {"measurement": "Spleen", "setting": "[3]; [11]", "result": "72.35 ± 8.2^3 mg"},
      {"measurement": "Tumor", "setting": "[3]; [11]", "result": "103.4 ± 24.1^3 mg"},
      {"measurement": "reduction in tumour size compared with untreated mice fed the control diet", "setting": "4T1 tumour cells; day 35, 5% milk fat diet, paclitaxel 30 mg/kg i.p. at ~0.5 cm", "result": 31, "unit": "%"},
      {"measurement": "appearance of jejunal villi in sections", "setting": "[4]; hematoxylin and eosin", "result": "broken and flattened villi"},
      {"measurement": "reduction in average length of the villi compared with control mice", "setting": "[4]; jejunum one week later", "result": 61, "unit": "%"},
      {"measurement": "mean number of tumours on the lung surface", "setting": "[5]", "result": 18},
      {"measurement": "reduction in numbers of tumours on the lung surface compared with untreated mice fed the control diet", "setting": "[5]", "result": 44, "unit": "%"},
      {"measurement": "mean number of liver metastases", "setting": "[6]", "result": 59},
      {"measurement": "reduction in numbers of tumours in the liver compared with untreated mice fed the control diet", "setting": "[6]", "result": 45, "unit": "%"},
      {"measurement": "increase in median distance to the nearest CD31+ vessels compared with untreated mice fed the control diet", "setting": "4T1 primary tumours", "result": 71, "unit": "%"},
      {"measurement": "reduction in microvessel density (CD31+ vessels) compared with untreated mice fed the control diet", "setting": "4T1 primary tumours", "result": 37, "unit": "%"},
      {"measurement": "reduction in RBC count compared to tumour-bearing mice fed the control diet", "setting": "[7]; [10]", "result": 49, "unit": "%"},
      {"measurement": "reduction in WBC count compared to tumour-bearing mice fed the control diet", "setting": "[7]; [10]", "result": 44, "unit": "%"},
      {"measurement": "RBC", "setting": "[7]; [11]", "result": "3.21 ± 0.74^3 ×10^6/μl"},
      {"measurement": "WBC", "setting": "[7]; [11]", "result": "2.37 ± 0.39^3 ×10^3/μl"},
      {"measurement": "increase in apoptotic body count per crypt compared with untreated mice", "setting": "[8]", "result": 6, "unit": "fold"},
      {"measurement": "reduction in jejunal γ-GGT activity compared to untreated control mice", "setting": "[9]", "result": 56, "unit": "%"}
    ]}
  ]
}
